The source made the active and inactive calls. The rule behind the calls is not given here.
System: M. tuberculosis H37Rv growth inhibition with meropenem
Test: dose response, H37Rv, with and without meropenem (AID 434987);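 note: growth over 7 days at 37 °C before Alamar Blue read on day 9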
[1] = M. tuberculosis H37Rv growth inhibition, measured here: IC50 without meropenem
[2] = M. tuberculosis H37Rv growth inhibition, measured here: IC90 without meropenem
[3] = measured here: IC90 with meropenem

C/C(=N\NC(=O)c1cccc(Cl)c1)c1cccc(NC(=O)C(C)C)c1
IC50: > 100 µM (inactive) | IC50 [1]: > 100 µM | IC90 [2]: > 100 µM | IC90 [3]: > 100 µM

Cc1cc(C)c(NC(=O)CC(C)(C)C)c(Cl)c1
IC50: 76.4 µM (inactive) | IC50 [1]: > 100 µM | IC90 [2]: > 100 µM | IC90 [3]: > 100 µM

Cn1nnnc1Sc1ncnc2scc(-c3ccccc3)c12
IC50: > 100 µM (inactive) | IC50 [1]: > 100 µM | IC90 [2]: > 100 µM | IC90 [3]: > 100 µM

CCOC(=O)C1=C(N)OC(CCl)=C(C#N)C1c1ccsc1 (stereo unspecified)
IC50: > 100 µM (inactive) | IC50 [1]: > 100 µM | IC90 [2]: > 100 µM | IC90 [3]: > 100 µM

N#CCOC(=O)/C=C/c1ccc2c(c1)OCO2
IC50: 29.7 µM | IC50 [1]: > 100 µM | IC90 [2]: > 100 µM | IC90 [3]: > 50 µM

Cc1cc(C)cc(NC(=S)NN)c1
IC50: 55.5 µM (inactive) | IC50 [1]: 78.3 µM | IC90 [2]: > 100 µM | IC90 [3]: > 100 µM

Brc1ccc(CNc2ccc3ncccc3c2)cc1
IC50: > 100 µM (inactive) | IC50 [1]: > 100 µM | IC90 [2]: > 100 µM | IC90 [3]: > 100 µM

Cc1c(C(=O)c2ccccc2)oc2ccc3ccccc3c12
IC50: > 100 µM (inactive) | IC50 [1]: > 100 µM | IC90 [2]: > 100 µM | IC90 [3]: > 100 µM

CCC(C(=O)NC1C(=O)N2C(C(=O)O)=C(CSc3nnc(C)s3)CSC12)c1ccccc1 (stereo unspecified)
IC50: 0.587 µM | IC50 [1]: > 100 µM | IC90 [2]: > 100 µM | IC90 [3]: 1.57 µM

Cc1cccc(Cn2c(N3CCN(c4ccccc4)CC3)nc3c2c(=O)n(C)c(=O)n3C)c1
IC50: > 100 µM (inactive) | IC50 [1]: > 100 µM | IC90 [2]: > 100 µM | IC90 [3]: > 100 µM

Cc1ccsc1C(=O)NNC(=O)c1csc(N2CCOCC2)n1
IC50: 62.7 µM (inactive) | IC50 [1]: > 100 µM | IC90 [2]: > 100 µM | IC90 [3]: > 100 µM

CC(=O)Nc1nonc1-c1nc2ccccc2n1CCC(C)C
IC50: > 100 µM (inactive) | IC50 [1]: > 100 µM | IC90 [2]: > 100 µM | IC90 [3]: > 100 µM

CCOc1ccc(S(=O)(=O)N(C(=O)c2ccco2)c2cc3sc(=O)oc3c3ccccc23)cc1
IC50: 44.7 µM (inactive) | IC50 [1]: 41.8 µM | IC90 [2]: 45.1 µM | IC90 [3]: 46.9 µM

COc1ccc(C(=O)Nc2ccc3nc(N4CCCCC4)cc(C)c3c2)c(OC)c1
IC50: 5.19 µM | IC50 [1]: > 100 µM | IC90 [2]: > 100 µM | IC90 [3]: > 100 µM

O=C(CSc1nnc(SCc2ccccc2)s1)N/N=C/c1ccc(Cl)cc1Cl
IC50: 72.2 µM (inactive) | IC50 [1]: > 100 µM | IC90 [2]: > 100 µM | IC90 [3]: > 100 µM

O=C(NCC1COc2ccccc2O1)C1CCC(CNc2c(N3CCCCC3)c(=O)c2=O)CC1 (stereo unspecified)
IC50: 24 µM (inactive) | IC50 [1]: 45.9 µM | IC90 [2]: 51.7 µM | IC90 [3]: 26.7 µM

Cc1cccc(Nc2nnc(SCC(=O)Nc3ncc(C(F)(F)F)cc3Cl)s2)c1C
IC50: 7.31 µM (inactive) | IC50 [1]: 13.4 µM | IC90 [2]: > 100 µM | IC90 [3]: 21.5 µM

Cc1cc(C)c(N=Cc2c(O)n(-c3nccs3)c(=O)c3ccccc23)c(C)c1
IC50: > 100 µM (inactive) | IC50 [1]: > 100 µM | IC90 [2]: > 100 µM | IC90 [3]: > 100 µM

COc1ccc(NC(=O)C/C(C)=N/NC(=O)c2cnccn2)cc1
IC50: 20.1 µM | IC50 [1]: > 100 µM | IC90 [2]: > 100 µM | IC90 [3]: > 100 µM

CN(C)S(=O)(=O)c1ccc(C(=O)OCC2CC2(Cl)Cl)cc1 (stereo unspecified)
IC50: > 100 µM (inactive) | IC50 [1]: > 100 µM | IC90 [2]: > 100 µM | IC90 [3]: > 100 µM

C/C(CC(=O)Nc1c(C)cc(C)cc1C)=N\NC(=O)c1cnccn1
IC50: 5.21 µM | IC50 [1]: 28.7 µM | IC90 [2]: 58.5 µM | IC90 [3]: 17.4 µM

COc1ccc(C(=O)NC(=S)Nc2ccc(S(=O)(=O)Nc3cc(C)on3)cc2)cc1OC
IC50: 13.8 µM | IC50 [1]: 36.5 µM | IC90 [2]: > 100 µM | IC90 [3]: 29 µM

O=C(N/N=C\c1cn[nH]c1-c1ccc(Cl)cc1)c1cccs1
IC50: > 100 µM (inactive) | IC50 [1]: > 100 µM | IC90 [2]: > 100 µM | IC90 [3]: > 100 µM

Cc1cc(C)c(-c2c(O)c3ccccc3n(C)c2=O)c(C)c1
IC50: 9.29 µM | IC50 [1]: 48.8 µM | IC90 [2]: > 100 µM | IC90 [3]: 42.2 µM

COc1ccccc1NS(=O)(=O)c1cccc(N2CC(O)=C(c3ccccc3)C2=N)c1
IC50: 8.71 µM (inactive) | IC50 [1]: 21.1 µM | IC90 [2]: > 100 µM | IC90 [3]: 16 µM

CNC(=S)N/N=C1\C(=O)c2cccc3cccc1c23
IC50: 20.1 µM | IC50 [1]: > 100 µM | IC90 [2]: > 100 µM | IC90 [3]: > 100 µM

Cc1nc(SCC(=O)NCc2ccco2)c2c3c(sc2n1)CCCC3
IC50: > 100 µM (inactive) | IC50 [1]: > 100 µM | IC90 [2]: > 100 µM | IC90 [3]: > 100 µM

Cc1ccc(NC(=S)Nc2ncccc2C)c(C)c1
IC50: 46.2 µM (inactive) | IC50 [1]: 97.1 µM | IC90 [2]: > 100 µM | IC90 [3]: > 100 µM

Cc1cc(NC(=O)/C=C/c2ccccc2Cl)n(-c2nc3ccccc3[nH]2)n1
IC50: 1.94 µM | IC50 [1]: > 100 µM | IC90 [2]: > 100 µM | IC90 [3]: > 100 µM

— PubChem BioAssay AID434987 (Southern Research Specialized Biocontainment Screening …, 2010)
